Earlier results, collected in patent US20150079169A1 (POZEN INC., priority 2011, published 2015).

Key:
[1] = for major cardiovascular events (ischaemic stroke, MI, or vascular death), average rate per year: 19,185 people with history of MI, stroke, or peripheral arterial disease, clopidogrel 75 mg daily versus aspirin 325 mg daily
[2] = test system: human plasma proteins
[3] = clopidogrel therapy
[4] = oral dose of 14C-labeled clopidogrel in humans, five days after dosing
[5] = repeated oral doses of 75 mg clopidogrel (base)

CC(=O)Oc1ccccc1C(=O)O [aspirin]
major cardiovascular events (ischaemic stroke, MI, or vascular death), average rate per year [1]: 6%
reduction of incidence of non-fatal myocardial infarction, non-fatal stroke and vascular death ([1]; people with known vascular disease): about a quarter

COC(=O)[C@H](c1ccccc1Cl)N1CCc2sccc2C1 [clopidogrel bisulfate]
effect of administration with meals on bioavailability of clopidogrel (assessed by pharmacokinetics of the main circulating metabolite): did not significantly modify

COC(=O)[C@H](c1ccccc1Cl)N1CCc2sccc2C1 [clopidogrel]
Absorption (based on urinary excretion of clopidogrel-related metabolites): at least 50%
elimination half-life of the active metabolite (in vivo): about eight hours
time of peak plasma levels (in vivo): 30 to 60 min
excreted in the feces [4]: approximately 46%
excreted in the urine [4]: approximately 50%
plasma concentrations of the parent compound (below the quantification limit) (repeated 75 mg oral doses, beyond two hours after dosing): < 0.258 ng/mL
peak plasma levels of the main circulating metabolite [5]: approx. 3 mg/L
time of peak plasma levels of the main circulating metabolite [5]: approximately one hour after dosing
RRR of major cardiovascular events versus aspirin ([1]; 95% CI 0.30% to 16.5%, P=0.04): 8.7%
OR for cardiovascular events compared with aspirin ([1]; 95% CI 0.84 to 0.98): 0.91
major cardiovascular events (ischaemic stroke, MI, or vascular death), average rate per year [1]: 5%
greater risk for major adverse cardiovascular events in patients with CYP2C19 variants ([1]; patients with variants in cytochrome P-450 2C19): 3.58 fold
reversible binding in vitro to human plasma proteins [2]: 98%
incidence of gastrointestinal hemorrhage [3]: 2.0 % annually

O=C(O)[C@H](c1ccccc1Cl)N1CCc2sccc2C1 [main circulating metabolite]
reversible binding in vitro to human plasma proteins [2]: 94%
